# Reference: PMC9820082, “Synthesis of 9-Hydroxy-1H-Benzo[f]chromene Derivatives with Effective Cytotoxic Activity on MCF7/ADR, P-Glycoprotein Inhibitors, Cell Cycle Arrest and Apoptosis Effects” (International Journal of Molecular Sciences, 2022)
# How the values were obtained:
# [1] = target: T1, P-gp activity (efflux function) (Homo sapiens, UniProt P08183); test: Rhodamine 123 accumulation assay in MCF-7/ADR cells; format: cell-based; details: 4 h with compound then 5.25 μM Rho123 for 30 min
# T1 construct: measuring intracellular accumulation of Rhodamine 123 in MCF-7/ADR cells; endogenous in cells; host or cells: MCF-7/ADR (Adriamycin-resistant human breast cancer cells)
# T1 sequence (P08183 whole entry): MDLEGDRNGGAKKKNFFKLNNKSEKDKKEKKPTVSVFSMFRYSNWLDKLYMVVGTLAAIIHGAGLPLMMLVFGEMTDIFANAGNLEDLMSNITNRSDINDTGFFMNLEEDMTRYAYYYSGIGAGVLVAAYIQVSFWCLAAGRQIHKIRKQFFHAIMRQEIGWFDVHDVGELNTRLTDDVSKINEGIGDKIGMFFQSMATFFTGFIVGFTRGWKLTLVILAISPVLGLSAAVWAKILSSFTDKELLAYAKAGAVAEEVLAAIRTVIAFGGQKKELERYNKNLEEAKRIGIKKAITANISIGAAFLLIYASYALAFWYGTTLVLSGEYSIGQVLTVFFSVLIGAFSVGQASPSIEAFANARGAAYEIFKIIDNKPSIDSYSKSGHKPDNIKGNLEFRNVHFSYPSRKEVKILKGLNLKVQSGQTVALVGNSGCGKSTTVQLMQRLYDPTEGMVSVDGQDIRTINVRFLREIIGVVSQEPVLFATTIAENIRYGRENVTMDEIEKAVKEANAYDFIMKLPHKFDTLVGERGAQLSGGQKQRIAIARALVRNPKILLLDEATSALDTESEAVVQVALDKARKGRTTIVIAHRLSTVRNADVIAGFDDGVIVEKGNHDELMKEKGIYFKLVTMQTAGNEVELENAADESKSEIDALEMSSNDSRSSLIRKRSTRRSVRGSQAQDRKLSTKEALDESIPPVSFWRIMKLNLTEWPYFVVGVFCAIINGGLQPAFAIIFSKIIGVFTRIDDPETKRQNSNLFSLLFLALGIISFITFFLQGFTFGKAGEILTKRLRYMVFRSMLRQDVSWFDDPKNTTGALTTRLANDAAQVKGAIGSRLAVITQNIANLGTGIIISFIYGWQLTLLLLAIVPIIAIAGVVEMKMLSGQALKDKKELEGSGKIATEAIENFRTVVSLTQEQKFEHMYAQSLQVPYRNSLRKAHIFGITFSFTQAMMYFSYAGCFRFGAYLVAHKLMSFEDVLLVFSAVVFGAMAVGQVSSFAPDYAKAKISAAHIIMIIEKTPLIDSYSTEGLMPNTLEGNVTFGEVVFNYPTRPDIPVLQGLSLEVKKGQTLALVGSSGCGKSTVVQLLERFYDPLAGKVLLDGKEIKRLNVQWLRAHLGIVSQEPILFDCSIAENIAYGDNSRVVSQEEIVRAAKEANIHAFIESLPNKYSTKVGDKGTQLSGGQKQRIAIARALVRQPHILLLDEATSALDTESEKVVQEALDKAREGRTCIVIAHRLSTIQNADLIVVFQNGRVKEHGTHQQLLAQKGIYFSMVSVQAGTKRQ
# Experimental: Furthermore, the reversion of P-gp-mediated multidrug resistance could be achieved by the down-regulation of P-gp expression and/or P-gp efflux function inhibition.
# Briefly, resistant cancer cells were harvested, washed twice and counted. […] of each well was measured using a Spectramax Gemini fluorescence microplate reader (Molecular Devices, Sunnyvale, CA, USA). The total content of Rhodamine in each sample was determined by comparison with a Rhodamine standard curve.
# [2] = tested on: MCF-7/ADR cells; test: Cell cycle analysis by flow cytometry (PI staining); format: cell-based, human; details: IC50 values, 24 h
# From the text: Cancer cells undergo unscheduled cell divisions by the down-regulation of the four cell cycle stages (G1, S, G2 and M); therefore, the development of anticancer agents targeting cell cycle arrest represents an important therapeutic intervention. P-gp breast cancer resistance proteins (BCRP) inhibit the action of anticancer drugs on cell cycle arrest by preventing intercellular drug accumulation. By using flow cytometry and the FACS Calibers, it was possible to examine how the potent-produced compounds (4a, 4c, 4e, 4g and 4i) affected the regulation of cell cycle progression in MCF-7/ADR cells (Becton Dickinson). […] The outcomes of the cell cycle progression give three different results showing compounds with cell cyclic arrest at the G1 phase (4d and 4e), while there were other compounds at the S phase (4a and 4c) and a final compound with cell cycle arrest at both of the G1/S phases (4g and 4i). […] According to the cell cycle analysis, the tested derivatives considerably stopped the MCF-7/ADR cancer cells in the G1/S phase.
# Figure 6 Effects of compounds 4a, 4c–4e, 4g and 4i on the cell cycle phases of MCF-7/ADR cells. […] Their DNA content was analyzed using fluorescence flow cytometry. […] The data are expressed as the mean ± SD of three independent experiments in triplicate. Significances are shown in comparison to control cells (* p < 0.001). TEXT PRINTED IN THE PICTURE: (a) DOX.: %DIP G1 63.03% (MCF7/ADR); %DIP G2/M 13.09% (MCF7/ADR); %DIP S 23.88% (MCF7/ADR) | (a) 4a: %DIP G1 41.63% (MCF7/ADR); %DIP G2/M 5.55% (MCF7/ADR); %DIP S 52.82% (MCF7/ADR) | (a) 4c: %DIP G1 52.13% (MCF7/ADR); %DIP G2/M 9.91% (MCF7/ADR); %DIP S 37.96% (MCF7/ADR) | (a) 4d: %DIP G1 59.42% (MCF7/ADR); %DIP G2/M 13.75% (MCF7/ADR); %DIP S 26.83% (MCF7/ADR) | (a) 4e: %DIP G1 67.32% (MCF7/ADR); %DIP G2/M 8.6% (MCF7/ADR); %DIP S 24.08% (MCF7/ADR) | (a) 4g: %DIP G1 59.37% (MCF7/ADR); %DIP G2/M 3.67% (MCF7/ADR); %DIP S 36.96% (MCF7/ADR) | (a) 4i: %DIP G1 5.68% (MCF7/ADR); %DIP G2/M 57.61% (MCF7/ADR); %DIP S 36.71% (MCF7/ADR) DOUBTS OF THE COPYIST ABOUT THIS PICTURE: The print in the histogram insets of panel (a) is very small and blurred; 3, 5, 6, 8 and 9 cannot be told apart with certainty in any value, so all values below are best readings. / DOX., %DIP G1 63.03%: 3s may be 8s / DOX., %DIP G2/M 13.09%: 9 may be 8; 3 may be 5 / DOX., %DIP S 23.88%: 8s may be 3 or 6 / 4a, %DIP G1 41.63%: 6 or 8; 3 or 8 / 4a, %DIP G2/M 5.55%: 5s may be 6 or 3 / 4a, %DIP S 52.82%: 8 may be 3 or 6 / 4c, %DIP G1 52.13%: 3 or 8 / 4c, %DIP G2/M 9.91%: 9s may be 8 / 4c, %DIP S 37.96%: 9 or 8; 6 or 8 / 4d, %DIP G1 59.42%: 9 or 8 / 4d, %DIP G2/M 13.75%: 3 or 8; 5 or 6 / 4d, %DIP S 26.83%: 6, 8 and 3 uncertain / 4e, %DIP G1 67.32%: 6 or 8; 3 or 8 / 4e, %DIP G2/M 8.6%: 8 and 6 uncertain; a further digit may be missing / 4e, %DIP S 24.08%: 8 may be 3 or 6 / 4g, %DIP G1 59.37%: 9 or 8; 3 or 8 / 4g, %DIP G2/M 3.67%: 3 or 8; 6 or 8 / 4g, %DIP S 36.96%: 3, 6 and 9 uncertain / 4i, %DIP G1 5.68%: 5, 6 and 8 uncertain; the value seems to be printed against G1 although a leading digit could be hidden / 4i, %DIP G2/M 57.61%: 5 or 6; 6 or 8 / 4i, %DIP S 36.71%: 3 or 8; 6 or 8 / The untreated control (Cont.) also carries printed percentages (%DIP G1 55.38%, %DIP G2/M 15.01%, %DIP S 29.61%) but was left out because it is not a substance.
Structure (SMILES),IC50 [1],cell cycle arrest phase [2]
"N#CC1=C(N)Oc2ccc3ccc(O)cc3c2C1c1ccc(Cl)cc1Cl (stereo not drawn) [4d, 3-Amino-1-(2,4-Dichlorophenyl)-9-Hydroxy-1H-Benzo[f]chromene-2-Carbonitrile]",46.6 µM,G1 phase
"N#CC1=C(N)Oc2ccc3ccc(O)cc3c2C1c1ccc(Cl)c(Cl)c1 (stereo not drawn) [4g, 3-Amino-1-(3,4-Dichlorophenyl)-9-Hydroxy-1H-Benzo[f]chromene-2-Carbonitrile]",36.7 µM,G1/S phases
"N#CC1=C(N)Oc2ccc3ccc(O)cc3c2C1c1ccc(F)cc1F (stereo not drawn) [4a, 3-Amino-1-(2,4-Difluorophenyl)-9-Hydroxy-1H-Benzo[f]chromene-2-Carbonitrile]",23.3 µM,S phase
"N#CC1=C(N)Oc2ccc3ccc(O)cc3c2C1c1cccc(Cl)c1Cl (stereo not drawn) [4c, 3-Amino-1-(2,3-Dichlorophenyl)-9-Hydroxy-1H-Benzo[f]chromene-2-Carbonitrile]",28.7 µM,S phase
"N#CC1=C(N)Oc2ccc3ccc(O)cc3c2C1c1cc(Br)cc(Br)c1 (stereo not drawn) [4i, 3-Amino-1-(3,5-Dibromophenyl)-9-Hydroxy-1H-Benzo[f]chromene-2-Carbonitrile]",55.3 µM,G1/S phases
"N#CC1=C(N)Oc2ccc3ccc(O)cc3c2C1c1cc(Cl)ccc1Cl (stereo not drawn) [4e, 3-Amino-1-(2,5-Dichlorophenyl)-9-Hydroxy-1H-Benzo[f]chromene-2-Carbonitrile]",14.6 µM,G1 phase
